Source: patent US20100004202A1, “Quaternary ammonium-functionalized-POSS compounds” (NDSU Research Foundation, priority 2008, published 2010)

Assays:
Solubility in methanol = format: physicochemical
Text: The octasilane-POSS, which was insoluble in methanol, was rendered soluble in methanol after the derivatization to Q-POSS.

[1] = system: Escherichia coli ATCC 12435; assay: Antimicrobial activity of Q-POSS in solution, bacterial log reduction; format: cell-based; settings: equal concentration 9.63×10^−5 moles/ml; 2 hrs at room temperature
Procedure: Antimicrobial characterization. The antimicrobial activity of the Q-POSS in methanol was determined as follows. Stocks of Escherichia coli ATCC 12435 and Staphylococcus aureus ATCC 25923 were maintained weekly at 4° C. on LBA and TSB, respectively. Broth cultures of E. coli (LBB) and S. aureus (TSB) were prepared by inoculating one colony into 10 ml of broth and incubating at 37° C. with shaking. Overnight cultures were pelleted via centrifugation (10 min at 4500 rpm), washed twice in 0.9% NaCl, and re-suspended to a 0.5 McFarland turbidity standard (˜10^8 cells/ml). Q-POSS (2 μL) was added to the bacterial suspension (1 mL) previously dispensed into a well of a sterile 24-well polystyrene plate. The plates were then placed on an orbital shaker and allowed to incubate for 2 hrs at room temperature. Each Q-POSS/bacterial suspension (0.1 mL of each) was immediately transferred to D/E neutralization medium (0.9 ml) in a 1.5 mL microcentrifuge tube, and serially diluted (1:10) in D/E medium. […] After 24 hr of incubation, the plates were removed from the incubator and photographed with a digital camera to quantify bacterial growth in solution. […] Methanol was also evaluated for antimicrobial activity as it was used to solublize the Q-POSS for biological evaluations. […]

E. coli = assay: Minimum inhibitory concentration (MIC); format: cell-based; settings: overnight incubation 37° C., absorbance at 600 nm
Procedure: The minimum inhibitory concentration (MIC), of Q-POSS compounds and non-Q-POSS compounds were compared and the results are shown in Table 4. As used herein, MIC refers to the lowest concentration of an antimicrobial agent that will inhibit the visible growth of a microorganism after overnight incubation. The procedure was carried out by serially diluting the antimicrobial agent in growth medium and adding the appropriate microorganism. Three 200 μl aliquots of each dilution (inoculated with the appropriate microorganism) were transferred to a 96-well plate and allowed to incubate overnight at the appropriate temperature (37° C. for biomedical microorganisms such as E. coli). The plates were then measured for absorbance at 600 nm to determine microbial growth.

Q: For `C[SiH](C)O[Si]12O[Si]3(O[SiH](C)C)O[Si]4(O[SiH](C)C)O[Si](O[SiH](C)C)(O1)O[Si]1(O[SiH](C)C)O[Si](O[SiH](C)C)(O2)O[Si](O[SiH](C)C)(O3)O[Si](O[SiH](C)C)(O4)O1` [octasilane-POSS, Octasilane-POSS], which solubility in methanol (Solubility in methanol) is on record?
A: insoluble

Q: With Benzalkonium chloride as the compound, how does the “Log Reduction against E. coli” value [1] read?
A: 7.0

Q: What about the “MIC against E. coli” value (E. coli) of the same compound?
A: 50 µg/mL
